Values of other authors in US4644054A, “Calcitonin analogs with amino acid substituents at position 31” (priority 1985, dated 1987).
Bridge positions count the residues as written; N and C are the ends. Ends that are not written are not given here.

Conditions: compared with natural human calcitonin

Row | Substance | activity relative to natural human calcitonin
1 | Salmon 1 calcitonin | thirty to forty times more active
2 | human calcitonin analog with Serine^29 and Threonine^31substituents: human calcitonin analog with Serine at position 29 and Threonine at position 31 (Maier et al. 1974) (CGNLSTCMLGTYTQDFNKFHTFPQTAIGSGTP; disulfide 1-7; ends not checked; UniProt P01258 85-116, looked up, variant V29S A31T) | five times more active
